Assay: Cetylpyridinium chloride adsorption on mucin-coated hydroxyapatite disks, HPLC of extract
Type: physicochemical
Conditions: for % Activity: relative to no surfactant
Protocol: Disks of hydroxyapatite (HAP) measuring 0.5 inch diameter and 0.04 inch thick were obtained from Clarkson Chromatography Products (Williamsport, Penn.). The disks were hydrated in deionized water for one hour and then allowed to air dry.
A 1% dispersion of bovine submaxillary mucin (type 1S, from Sigma) was then prepared. The HAP disks were then soaked in the 1% mucin dispersion overnight. The disks were then allowed to air dry for al least 2 hours. These disks, composed of HAP on which was deposited a layer of mucin, represented an oral surface.
The disks were soaked in 5 ml of the test solution for 10 minutes in a polystyrene petri dish (35 mm diameter×10 mm deep, from Becton Dickinson). The disks were then removed, rinsed for 3 seconds with deionized water on each side with a wash bottle.
The extractant solution is composed of 60 parts of a 20 mM phosphate buffer and 40 parts methanol, in which is dissolved 30 mM cetyltrimethylammonium bromide. The disks were soaked in 5 ml of the extractant solution for 2 hours.

[1] = Example 2: test solution as Example 1, also 0.125% by weight sodium bicarbonate
[2] = Example 1: test solution 0.125% cetylpyridinium chloride + 0.9% surfactant, disks soaked 10 minutes
[3] = Example 1: test solution 0.125% cetylpyridinium chloride + 0.9% surfactant

Molecule | CPC adsorbed [1] [μg/disk] | CPC adsorbed [2] [μg/disk] | cetylpyridinium chloride absorbed (in words) (Example 1 test solutions) | % Activity [1] [%] | % Activity [3] [%]
Cocobetaine | 48.8 |  |  | 78.2 | 
CCCCCCCC[NH2+][O-] [Octylamine oxide] | 47.4 |  |  | 76.0 | 
CCCCCCCCCC[NH2+][O-] [Decylamine oxide] | 39.1 |  |  | 62.7 | 

Further lines, with some results ahead:

CPC adsorbed [1] [μg/disk] | CPC adsorbed [2] [μg/disk] | cetylpyridinium chloride absorbed (in words) (Example 1 test solutions) | Molecule | % Activity [1] [%] | % Activity [3] [%]
7.4 |  |  | Dodecyl-Iminodipropionate | 11.9 | 
 | 8.0 |  | Cocoamphodiacetate |  | 13.5
10.6 |  |  | Dodecyl-Amphodiacetate | 17.0 | 
41.2 | 41.8 | clearly superior | Cocamidopropyl betaine | 66.0 | 70.4
